Columns and labels:
Assay type in all cases: in vivo
Conditions in all cases: 3 L/ha of glufosinate ammonium 18.5%
Water foxtail = assay: Weed control efficacy of glufosinate applied with the applicator: water foxtail
From the text: (§1) The rate of application was 3 L/ha of glufosinate ammonium 18.5%.

Barnyard grass = assay: Weed control efficacy of glufosinate applied with the applicator: barnyard grass
From the text: as §1

Broadleaf dock = assay: Weed control efficacy of glufosinate applied with the applicator: broadleaf dock
From the text: as §1

Field horsetail = assay: Weed control efficacy of glufosinate applied with the applicator: field horsetail
From the text: as §1

Crabgrass = assay: Weed control efficacy of glufosinate applied with the applicator: crabgrass
From the text: as §1

[1] = 0.36% applied at 15 ml/m^2, applicator of the disclosure
[2] = 0.56% applied at 10 ml/m^2, applicator of the disclosure

CP(=O)(O)CCC(N)C(=O)O (racemic) [glufosinate, glufosinate ammonium]
Control %: Max weed efficacy (Water foxtail; [1]): 96%
Control %: Max weed efficacy (Water foxtail; [2]): 92%
Control %: Max weed efficacy (Barnyard grass; [1]): 59%
Control %: Max weed efficacy (Barnyard grass; [2]): 55%
Control %: Max weed efficacy (Broadleaf dock; [1]): 92%
Control %: Max weed efficacy (Broadleaf dock; [2]): 99%
Control %: Max weed efficacy (Field horsetail; [1]): 76%
Control %: Max weed efficacy (Field horsetail; [2]): 73%
Control %: Max weed efficacy (Crabgrass; [1]): 82%
Control %: Max weed efficacy (Crabgrass; [2]): 81%

— patent US12667098B2, “Ready to use plant treatment agent applicator, container and product” (UPL Corporation Limited, priority 2022, dated 2026)
